According to US11491232B2, “Lactuloside compounds and preparation and use thereof” (Fruithy Holdings Limited, priority 2017, dated 2022):

Tests used:
[1] = Test on stability in mediums in vitro (buffer solutions with different pH, simulated intestinal fluid, simulated gastric fluid); assay type: physicochemical
Method: At 37° C., Compound 17 was incubated in different mediums (buffer solutions with different pH, a simulated intestinal fluid containing pancreatin, and simulated gastric fluid containing pepsin).
(§1) Other typical example compounds were tested for stability according to the above method, and the test results are shown in Table 8 below.

colon flora = experiment: Stability in the presence of colon flora (content in colon of rat); assay type: in vitro ADME, SD rat
Method: A phosphate buffer solution with a pH of 7.0 was formulated, and then CO2 was introduced to the solution to adjust the pH to 6.8. Then, the content in colon of a male SD rat (body weight: 180-220 g) was placed in a water bath at 37° C., and added into the phosphate buffer solution with a pH of 6.8 as prepared above under the protection of N2 to a concentration of 20% (w/v). The buffer solution was kept in an oxygen-free environment. Then, the test Compound 17 was added to the buffer solution, and the solution was stirred uniformly.
Supernatant was analyzed with HPLC, where the amount of each ingredient was calculated by normalization.
Note: in the above table, “T14.148 (%)” represents the percentage of peak area of the material with a retention time of 14.148 min “T14.713 (%)” represents the percentage of peak area of the material with a retention time of 14.713 min. “T16.392 (%)” represents the percentage of peak area of the material with a retention time of 16.392 min. “T22.624 (%)” represents the percentage of peak area of the material with a retention time of 22.624 min.
as §1

[2] = male, Sprague-Dawley (SD), rat, 0 h, pH 6.8
[3] = male, Sprague-Dawley (SD), rat, 1 h, pH 6.8
[4] = male, Sprague-Dawley (SD), rat, 2 h, pH 6.8
[5] = male, Sprague-Dawley (SD), rat, 3 h, pH 6.8
[6] = male, Sprague-Dawley (SD), rat, 20 h, pH 6.8
[7] = male, Sprague-Dawley, rat, 3 h, pH 6.8
[8] = Simulated intestinal fluid (containing pancreatin) (pH 6.8) (8 h)

## C[C@]12C=CC(=O)C=C1CC[C@@H]1[C@@H]2C(=O)C[C@@]2(C)[C@H]1CC[C@]2(O)C(=O)COC1(CO)O[C@H](CO)[C@@H](O[C@@H]2O[C@H](CO)[C@H](O)[C@H](O)[C@H]2O)[C@@H]1O (stereo partly drawn) [Compound 17, 17-hydroxyl-21-{[4-O-(β-D-galactopyranosyl)-D-fructofuranosyl]oxy}pregna-1,4-diene-3,11,20-trione]
[1]; Acetate buffer solution, pH 4.0, 37° C., 0 h
  Compound 17 (%): 99.6%
[1]; Acetate buffer solution, pH 4.0, 37° C., 0.5 h
  Compound 17 (%): 99.6%
[1]; Acetate buffer solution, pH 4.0, 37° C., 1 h
  Compound 17 (%): 99.5%
[1]; Acetate buffer solution, pH 4.0, 37° C., 1.5 h
  Compound 17 (%): 99.4%
[1]; Acetate buffer solution, pH 4.0, 37° C., 4 h
  Compound 17 (%): 99.2%
[1]; Acetate buffer solution, pH 4.0, 37° C., 20 h
  Compound 17 (%): 97.1%
[1]; Acetate buffer solution, pH 4.0, 37° C., 24 h
  Compound 17 (%): 96.5%
[1]; Hydrochloric acid solution, pH 1.2, 37° C., 0 h
  Compound 17 (%): 96.0%
[1]; Hydrochloric acid solution, pH 1.2, 37° C., 0.5 h
  Compound 17 (%): 47.1%
[1]; Hydrochloric acid solution, pH 1.2, 37° C., 1 h
  Compound 17 (%): 22.1%
[1]; Hydrochloric acid solution, pH 1.2, 37° C., 2 h
  Compound 17 (%): 4.5%
[1]; Hydrochloric acid solution, pH 1.2, 37° C., 3 h
  Compound 17 (%): 1.0%
[1]; Hydrochloric acid solution, pH 2.0, 37° C., 0 h
  Compound 17 (%): 99.7%
[1]; Hydrochloric acid solution, pH 2.0, 37° C., 0.5 h
  Compound 17 (%): 93.3%
[1]; Hydrochloric acid solution, pH 2.0, 37° C., 1 h
  Compound 17 (%): 86.5%
[1]; Hydrochloric acid solution, pH 2.0, 37° C., 1.5 h
  Compound 17 (%): 80.1%
[1]; Hydrochloric acid solution, pH 2.0, 37° C., 2 h
  Compound 17 (%): 74.6%
[1]; Hydrochloric acid solution, pH 2.0, 37° C., 3 h
  Compound 17 (%): 64.5%
[1]; Hydrochloric acid solution, pH 2.0, 37° C., 4 h
  Compound 17 (%): 55.3%
[1]; Hydrochloric acid solution, pH 2.0, 37° C., 8 h
  Compound 17 (%): 30.8%
[1]; Hydrochloric acid solution, pH 2.0, 37° C., 24 h
  Compound 17 (%): 2.5%
[1]; Phosphate buffer solution, pH 5.8, 37° C., 0 h
  Compound 17 (%): 99.5%
[1]; Phosphate buffer solution, pH 5.8, 37° C., 1 h
  Compound 17 (%): 97.3%
[1]; Phosphate buffer solution, pH 5.8, 37° C., 6 h
  Compound 17 (%): 99.4%
[1]; Phosphate buffer solution, pH 5.8, 37° C., 8 h
  Compound 17 (%): 99.5%
[1]; Phosphate buffer solution, pH 5.8, 37° C., 33 h
  Compound 17 (%): 99.3%
[1]; Phosphate buffer solution, pH 6.8, 37° C., 0 h
  Compound 17 (%): 97.3%
[1]; Phosphate buffer solution, pH 6.8, 37° C., 1 h
  Compound 17 (%): 97.5%
[1]; Phosphate buffer solution, pH 6.8, 37° C., 6 h
  Compound 17 (%): 99.0%
[1]; Phosphate buffer solution, pH 6.8, 37° C., 8 h
  Compound 17 (%): 99.0%
[1]; Phosphate buffer solution, pH 6.8, 37° C., 33 h
  Compound 17 (%): 97.6%
[1]; Phosphate buffer solution, pH 7.8, 37° C., 0 h
  Compound 17 (%): 97.5%
[1]; Phosphate buffer solution, pH 7.8, 37° C., 1 h
  Compound 17 (%): 97.6%
[1]; Phosphate buffer solution, pH 7.8, 37° C., 6 h
  Compound 17 (%): 97.6%
[1]; Phosphate buffer solution, pH 7.8, 37° C., 8 h
  Compound 17 (%): 97.6%
[1]; Phosphate buffer solution, pH 7.8, 37° C., 33 h
  Compound 17 (%): 97.7%
[1]; Simulated gastric fluid (containing pepsin) (pH 2.0), 37° C., 0 h
  Compound 17 (%): 97.0%
[1]; Simulated gastric fluid (containing pepsin) (pH 2.0), 37° C., 0.5 h
  Compound 17 (%): 53.6%
[1]; Simulated gastric fluid (containing pepsin) (pH 2.0), 37° C., 1 h
  Compound 17 (%): 28.9%
[1]; Simulated gastric fluid (containing pepsin) (pH 2.0), 37° C., 1.5 h
  Compound 17 (%): 15.6%
[1]; Simulated gastric fluid (containing pepsin) (pH 2.0), 37° C., 2 h
  Compound 17 (%): 7.0%
[1]; Simulated gastric fluid (containing pepsin) (pH 2.0), 37° C., 3 h
  Compound 17 (%): 2.1%
[1]; Simulated intestinal fluid (containing pancreatin) (pH 6.8), 37° C., 0 h
  Compound 17 (%): 97.6%
[1]; Simulated intestinal fluid (containing pancreatin) (pH 6.8), 37° C., 1 h
  Compound 17 (%): 97.4%
[1]; Simulated intestinal fluid (containing pancreatin) (pH 6.8), 37° C., 6 h
  Compound 17 (%): 97.7%
[1]; Simulated intestinal fluid (containing pancreatin) (pH 6.8), 37° C., 8 h
  Compound 17 (%): 97.7%
[1]; Simulated intestinal fluid (containing pancreatin) (pH 6.8), 37° C., 33 h
  Compound 17 (%): 96.2%
[1]; Water (pH 6.2), 37° C., 0 h
  Compound 17 (%): 97.6%
[1]; Water (pH 6.2), 37° C., 1 h
  Compound 17 (%): 97.6%
[1]; Water (pH 6.2), 37° C., 6 h
  Compound 17 (%): 97.6%
[1]; Water (pH 6.2), 37° C., 8 h
  Compound 17 (%): 98.2%
[1]; Water (pH 6.2), 37° C., 33 h
  Compound 17 (%): 98.0%
[1]; pH 2.0 or higher, within 1.5 hours, 37° C.
  percentage of remaining Compound 17: greater than 80%
Colon flora; male, SD, rat, 0 h, pH 6.8
  Compound 17 (%): 84.8%
  T14.148 (%) (percentage of peak area of the material with a retention time of 14.148 min): 13.5%
  T22.624 (%) (percentage of peak area of the material with a retention time of 22.624 min): 0.0%
Colon flora; male, SD, rat, 1 h, pH 6.8
  Compound 17 (%): 49.0%
  T14.148 (%) (percentage of peak area of the material with a retention time of 14.148 min): 42.5%
  T22.624 (%) (percentage of peak area of the material with a retention time of 22.624 min): 0.0%
Colon flora; male, SD, rat, 2 h, pH 6.8
  Compound 17 (%): 25.3%
  T22.624 (%) (percentage of peak area of the material with a retention time of 22.624 min): 0.0%
Colon flora; male, SD, rat, 3 h, pH 6.8
  T22.624 (%) (percentage of peak area of the material with a retention time of 22.624 min): 0.0%
Colon flora; male, SD, rat, 20 h, pH 6.8
  Compound 17 (%): 0.0%
  T22.624 (%) (percentage of peak area of the material with a retention time of 22.624 min): 7.8%
Colon flora; [2]
  Prednisone (%) (released from Compound 17): 1.7%
  T14.713 (%) (percentage of peak area of the material with a retention time of 14.713 min): 0.0%
  T16.392 (%) (percentage of peak area of the material with a retention time of 16.392 min): 0.0%
Colon flora; [3]
  Prednisone (%) (released from Compound 17): 8.1%
  T14.713 (%) (percentage of peak area of the material with a retention time of 14.713 min): 0.0%
  T16.392 (%) (percentage of peak area of the material with a retention time of 16.392 min): 0.0%
Colon flora; [4]
  Prednisone (%) (released from Compound 17): 14.7%
  T14.148 (%) (percentage of peak area of the material with a retention time of 14.148 min): 59.1%
  T14.713 (%) (percentage of peak area of the material with a retention time of 14.713 min): 0.0%
  T16.392 (%) (percentage of peak area of the material with a retention time of 16.392 min): 0.0%
Colon flora; [5]
  Prednisone (%) (released from Compound 17): 21.2%
  T14.148 (%) (percentage of peak area of the material with a retention time of 14.148 min): 65.5%
  T14.713 (%) (percentage of peak area of the material with a retention time of 14.713 min): 0.0%
  T16.392 (%) (percentage of peak area of the material with a retention time of 16.392 min): 0.0%
Colon flora; [6]
  Prednisone (%) (released from Compound 17): 39.7%
  T14.148 (%) (percentage of peak area of the material with a retention time of 14.148 min): 12.7%
  T14.713 (%) (percentage of peak area of the material with a retention time of 14.713 min): 19.2%
  T16.392 (%) (percentage of peak area of the material with a retention time of 16.392 min): 6.4%
Colon flora; [7]
  Compound 17 (%): 11.3%
  percentage of the compound degraded: about 90%

## COCCCN1CCC(N(C(=O)c2cc(Cl)c(N)c3c2OCC3)C2(CO)O[C@H](CO)C(O[C@@H]3OC(CO)[C@H](O)C(O)C3O)C2O)CC1 (stereo partly drawn) [Compound 13, 4-amino-5-chloro-2,3-dihydro-N-[1-(3-methoxypropyl)-4-piperidinyl]-N′-[4-O-(β-D-galactopyranosyl)-D-fructofuranosyl]-7-benzofurancarboxamide]
[1]; [8]
  Percentage of the example compound remaining (Composition, %): 99.4%
  Percentage of the released active drug (prednisolone, dexamethasone, budesonide, apremilast or prucalopride) (Composition, %): 0%
[1]; Water (pH 1.2) (2 h)
  Percentage of the example compound remaining (Composition, %): 4.4%
  Percentage of the released active drug (prednisolone, dexamethasone, budesonide, apremilast or prucalopride) (Composition, %): 95.0%
Colon flora; Content in colon (pH 6.8) (1 h)
  Percentage of the example compound remaining (Composition, %): 18.7%
